The term pEC50 denotes −log10 of the EC50, conventionally taken in molar units. A low value points to a large EC50.

pEC50: −log10 of the molar value.

The target of one assay is T1, hSTING (Homo sapiens, UniProt Q86WV6, G230A/H232R/R293Q/R71H).
T1 construct: host or cells: THP1-Dual KO-IFNAR2 cells
T1 sequence (Q86WV6 whole entry R71H/G230A/H232R/R293Q): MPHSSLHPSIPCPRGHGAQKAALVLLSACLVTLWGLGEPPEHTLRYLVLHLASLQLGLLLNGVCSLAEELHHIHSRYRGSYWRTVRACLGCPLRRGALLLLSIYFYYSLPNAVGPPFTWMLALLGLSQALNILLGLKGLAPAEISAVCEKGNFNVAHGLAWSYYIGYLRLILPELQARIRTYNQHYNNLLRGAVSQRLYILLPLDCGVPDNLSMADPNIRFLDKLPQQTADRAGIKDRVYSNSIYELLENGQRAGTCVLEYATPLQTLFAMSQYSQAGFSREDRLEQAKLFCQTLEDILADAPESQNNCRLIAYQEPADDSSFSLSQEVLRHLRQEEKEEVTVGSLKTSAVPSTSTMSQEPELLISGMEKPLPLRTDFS
Nature of the assay: STING reporter assay (luciferase) in THP1-Dual KO-IFNAR2 cells stimulated with 2′3′cGAMP. The assay is classed as cell-based. To be noted: 2′3′cGAMP 15 μM, 24 h, class symbols. The procedure:
STING pathway activation by the compounds described herein was measured using THP1-Dual™ cells (KO-IFNAR2).
THP1-Dual™ KO-IFNAR2 Cells (obtained from invivogen) were maintained in RPMI, 10% FCS, 5 ml P/S, 2 mM L-glut, 10 mM Hepes, and 1 mM sodium pyruvate. Compounds were spotted in empty 384 well tissue culture plates (Greiner 781182) by Echo for a final concentration of 0.0017-100 μM. Cells were plated into the TC plates at […], 2×10E6 cells/mL. For activation with STING ligand, 2′3′cGAMP (MW 718.38, obtained from Invivogen), was prepared in Optimem media.
The following solutions were prepared for each 1×384 plate: • Solution A: 2 mL Optimem with one of the following stimuli: • […] • Solution B: 2 mL Optimem with 60 μL Lipofectamine 2000->Incubate 5 min at RT
2 mL of solution A and 2 ml Solution B was mixed and incubated for 20 min at room temperature (RT). 20 uL of transfection solution (A+B) was added on top of the plated cells, with a final 2′3′cGAMP concentration of 15 μM. The plates were then centrifuged immediately at 340 g for 1 minute, after which they were incubated at 37° C., 5% CO2, >98% humidity for 24 h. Luciferase reporter activity was then measured. EC50 values were calculated by using standard methods known in the art.
Luciferase reporter assay: 10 μL of supernatant from the assay was transferred to white 384-plate with flat bottom and squared wells. One pouch of QUANTI-Luc™ Plus was dissolved in 25 mL of water. 100 μL of QLC Stabilizer per 25 mL of QUANTI-Luc™ Plus solution was added. 50 μL of QUANTI-Luc™ Plus/QLC solution per well was then added. Luminescence was measured on a Platereader (e.g., Spectramax I3X (Molecular Devices GF3637001)).
Luciferase reporter activity was then measured. EC50 values were calculated by using standard methods known in the art.
Background: A reporter such as luciferase makes a cellular process visible.
The compound `O=C(Nc1cnc(C2CCC(F)(F)CC2)c(Cl)c1)Nc1c[nH]c2cccnc12` [Compound 142, 1-(5-chloro-6-(4,4-difluorocyclohexyl)pyridin-3-yl)-3-(1H-pyrrolo[3,2-b]pyridin-3-yl)urea] showed a pEC50 of 6.00 to 6.70.

`O=C(Nc1cnc(C2CC(F)(F)C2)c(Cl)c1)Nc1c[nH]c2cccnc12` [Compound 143, 1-(5-chloro-6-(3,3-difluorocyclobutyl)pyridin-3-yl)-3-(1H-pyrrolo[3,2-b]pyridin-3-yl)urea] showed a negative logarithm of the EC50 (pEC50) of 6.00 to 6.70.

Consider `O=C(Nc1cnc(N2CCC(F)(F)CC2)c(Cl)c1)Nc1c[nH]c2ccc(Cl)nc12` [Compound 144, 1-(5-chloro-1H-pyrrolo[3,2-b]pyridin-3-yl)-3-(5-chloro-6-(4,4-difluoropiperidin-1-yl)pyridin-3-yl)urea], for which the negative logarithm of the EC50 (pEC50) was 6.00 to 6.70.

`O=C(Nc1cnc(N2CCC(F)(F)CC2)c(Cl)c1)Nc1c[nH]c2cc(F)cnc12` [Compound 145, 1-(5-chloro-6-(4,4-difluoropiperidin-1-yl)pyridin-3-yl)-3-(6-fluoro-1H-pyrrolo[3,2-b]pyridin-3-yl)urea] had a negative-log EC50 (pEC50) of 6.00 to 6.70.

Compound `Cc1cc(NC(=O)Nc2c[nH]c3cccnc23)cnc1N1CCC(F)(F)CC1` [Compound 146, 1-(6-(4,4-difluoropiperidin-1-yl)-5-methylpyridin-3-yl)-3-(1H-pyrrolo[3,2-b]pyridin-3-yl)urea] gave a negative-log EC50 (pEC50) of 5.30 to 6.00.

Turning to `O=C(Nc1cnc(N2CCC(F)(F)CC2)c(CCO)c1)Nc1c[nH]c2ncc(F)cc12` [Compound 147, 1-(6-(4,4-difluoropiperidin-1-yl)-5-(2-hydroxyethyl)pyridin-3-yl)-3-(5-fluoro-1H-pyrrolo[2,3-b]pyridin-3-yl)urea], the pEC50 was 4.00 to 5.30.

Regarding `N#Cc1cc(NC(=O)Nc2c[nH]c3cccnc23)ccc1C1CCC(F)(F)CC1` [Compound 148, 1-(3-cyano-4-(4,4-difluorocyclohexyl)phenyl)-3-(1H-pyrrolo[3,2-b]pyridin-3-yl)urea], the pEC50 is 6.00 to 6.70.

With `N#Cc1cc(NC(=O)Nc2c[nH]c3c(F)cncc23)ccc1C1CCC(F)(F)CC1` [Compound 149, 1-(3-cyano-4-(4,4-difluorocyclohexyl)phenyl)-3-(7-fluoro-1H-pyrrolo[3,2-c]pyridin-3-yl)urea], the negative-log EC50 (pEC50) was 6.00 to 6.70.

Regarding `COc1ccc2[nH]cc(NC(=O)Nc3ccc(C4CCC(F)(F)CC4)c(C#N)c3)c2n1` [Compound 150, 1-(3-cyano-4-(4,4-difluorocyclohexyl)phenyl)-3-(5-methoxy-1H-pyrrolo[3,2-b]pyridin-3-yl)urea], the negative logarithm of the EC50 (pEC50) was 6.00 to 6.70.

With `N#Cc1cc(NC(=O)Nc2c[nH]c3ncc(Cl)cc23)cnc1C1CCC(F)(F)CC1` [Compound 151, 1-(5-chloro-1H-pyrrolo[2,3-b]pyridin-3-yl)-3-(5-cyano-6-(4,4-difluorocyclohexyl)pyridin-3-yl)urea], the pEC50 is 6.00 to 6.70.

As for `O=C(Nc1cc(Cl)c(C2CCC(F)(F)CC2)cn1)Nc1c[nH]c2ncc(F)cc12` [Compound 152, 1-(4-chloro-5-(4,4-difluorocyclohexyl)pyridin-2-yl)-3-(5-fluoro-1H-pyrrolo[2,3-b]pyridin-3-yl)urea], the pEC50 was 6.70 to 7.40.

`COc1cc2c(NC(=O)Nc3ccc(C4CCC(F)(F)CC4)c(C#N)c3)c[nH]c2cn1` [Compound 154, 1-(3-cyano-4-(4,4-difluorocyclohexyl)phenyl)-3-(5-methoxy-1H-pyrrolo[2,3-c]pyridin-3-yl)urea] showed a negative logarithm of the EC50 (pEC50) of 6.00 to 6.70.

The compound `N#Cc1cc(NC(=O)Nc2c[nH]c3ncc(F)cc23)cnc1C1CCC(F)(F)CC1` [Compound 155, 1-(5-cyano-6-(4,4-difluorocyclohexyl)pyridin-3-yl)-3-(5-fluoro-1H-pyrrolo[2,3-b]pyridin-3-yl)urea] had a negative logarithm of the EC50 (pEC50) of 6.70 to 7.40.

Regarding `N#Cc1cc(NC(=O)Nc2c[nH]c3ncc(F)cc23)cnc1N1CCC(F)(F)CC1` [Compound 157, 1-(5-cyano-6-(4,4-difluoropiperidin-1-yl)pyridin-3-yl)-3-(5-fluoro-1H-pyrrolo[2,3-b]pyridin-3-yl)urea], the pEC50 is 6.00 to 6.70.

`O=C(Nc1cnc(C2CCC(F)(F)CC2)c(CO)c1)Nc1c[nH]c2ncc(F)cc12` [Compound 158, 1-(6-(4,4-difluorocyclohexyl)-5-(hydroxymethyl)pyridin-3-yl)-3-(5-fluoro-1H-pyrrolo[2,3-b]pyridin-3-yl)urea]: the pEC50 is 4.00 to 5.30.

In the case of `COc1cc(NC(=O)Nc2c[nH]c3ncc(F)cc23)ncc1C1CCC(F)(F)CC1` [Compound 160, 1-(5-(4,4-difluorocyclohexyl)-4-methoxypyridin-2-yl)-3-(5-fluoro-1H-pyrrolo[2,3-b]pyridin-3-yl)urea], the pEC50 was 6.00 to 6.70.

On to `O=C(Nc1ccc(C2CC(F)(F)C2)nc1)Nc1c[nH]c2ncc(F)cc12` [Compound 161, 1-(6-(3,3-difluorocyclobutyl)pyridin-3-yl)-3-(5-fluoro-1H-pyrrolo[2,3-b]pyridin-3-yl)urea], for which the negative-log EC50 (pEC50) was 5.30 to 6.00.

For `Cc1cc(NC(=O)Nc2c[nH]c3ncc(F)cc23)cnc1N1CC2(C1)CC(F)(F)C2` [Compound 162, 1-(6-(6,6-difluoro-2-azaspiro[3.3]heptan-2-yl)-5-methylpyridin-3-yl)-3-(5-fluoro-1H-pyrrolo[2,3-b]pyridin-3-yl)urea], the negative logarithm of the EC50 (pEC50) is 6.00 to 6.70.

Regarding `CCc1cc(NC(=O)Nc2c[nH]c3ncc(F)cc23)cnc1N1CCC(F)(F)CC1` [Compound 163, 1-(6-(4,4-difluoropiperidin-1-yl)-5-ethylpyridin-3-yl)-3-(5-fluoro-1H-pyrrolo[2,3-b]pyridin-3-yl)urea], the negative logarithm of the EC50 (pEC50) was 6.00 to 6.70.

`COc1cc(NC(=O)Nc2c[nH]c3ncc(F)cc23)cnc1C1CCC(F)(F)CC1` [Compound 164, 1-(6-(4,4-difluorocyclohexyl)-5-methoxypyridin-3-yl)-3-(5-fluoro-1H-pyrrolo[2,3-b]pyridin-3-yl)urea] had a pEC50 of 6.00 to 6.70.

In turn, `COc1cc(NC(=O)Nc2c[nH]c3ncc(F)cc23)cnc1N1CCC(F)(F)CC1` [Compound 165, 1-(6-(4,4-difluoropiperidin-1-yl)-5-methoxypyridin-3-yl)-3-(5-fluoro-1H-pyrrolo[2,3-b]pyridin-3-yl)urea] gave a pEC50 of 6.00 to 6.70.

`O=C(Nc1cnc(C2CC(F)(F)C2)c(Cl)c1)Nc1c[nH]c2ncc(F)cc12` [Compound 166, 1-(5-chloro-6-(3,3-difluorocyclobutyl)pyridin-3-yl)-3-(5-fluoro-1H-pyrrolo[2,3-b]pyridin-3-yl)urea] had a negative-log EC50 (pEC50) of 6.00 to 6.70.

Compound `COc1cnc2[nH]cc(NC(=O)Nc3cnc(N4CCC(F)(F)CC4)c(C)c3)c2c1` [Compound 168, 1-(6-(4,4-difluoropiperidin-1-yl)-5-methylpyridin-3-yl)-3-(5-methoxy-1H-pyrrolo[2,3-b]pyridin-3-yl)urea] gave a negative-log EC50 (pEC50) of 6.00 to 6.70.

The compound `COc1ccc2[nH]cc(NC(=O)Nc3cnc(C4CCC(F)(F)CC4)c(C)c3)c2n1` [Compound 169, 1-(6-(4,4-difluorocyclohexyl)-5-methylpyridin-3-yl)-3-(5-methoxy-1H-pyrrolo[3,2-b]pyridin-3-yl)urea] gave a pEC50 of 6.00 to 6.70.

`Cc1cc(NC(=O)Nc2c[nH]c3ncc(F)cc23)cnc1N1CCC(C)CC1` [Compound 170, 1-(5-fluoro-1H-pyrrolo[2,3-b]pyridin-3-yl)-3-(5-methyl-6-(4-methylpiperidin-1-yl)pyridin-3-yl)urea] gave a negative-log EC50 (pEC50) of 6.00 to 6.70.

As to `Cc1cc(NC(=O)Nc2c[nH]c3ncc(F)cc23)cnc1N1CC(F)(F)C1` [Compound 171, 1-(6-(3,3-difluoroazetidin-1-yl)-5-methylpyridin-3-yl)-3-(5-fluoro-1H-pyrrolo[2,3-b]pyridin-3-yl)urea], the pEC50 is 6.00 to 6.70.

For the compound `Cc1cc(NC(=O)Nc2c[nH]c3c(F)cncc23)cnc1N1CCC(F)(F)CC1` [Compound 172, 1-(6-(4,4-difluoropiperidin-1-yl)-5-methylpyridin-3-yl)-3-(7-fluoro-1H-pyrrolo[3,2-c]pyridin-3-yl)urea], the pEC50 is 5.30 to 6.00.

Staying with this assay, now noted: 2′3′cGAMP 15 μM, 24 h, numeric bounds.
Take `Cc1cc(NC(=O)Nc2c[nH]c3ncc(F)cc23)cnc1N1CC2(CC(O)C2)C1` [Compound 156, 1-(5-fluoro-1H-pyrrolo[2,3-b]pyridin-3-yl)-3-(6-(6-hydroxy-2-azaspiro[3.3]heptan-2-yl)-5-methylpyridin-3-yl)urea]: the negative-log EC50 (pEC50) is less than 4.52.

Turning to `Cc1cc(NC(=O)Nc2c[nH]c3ncc(F)cc23)cnc1N1CC2(COC2)C1` [Compound 159, 1-(5-fluoro-1H-pyrrolo[2,3-b]pyridin-3-yl)-3-(5-methyl-6-(2-oxa-6-azaspiro[3.3]heptan-6-yl)pyridin-3-yl)urea], the negative-log EC50 (pEC50) is less than 4.52.

Regarding `Cc1cc(NC(=O)Nc2c[nH]c3ncc(F)cc23)cnc1N1CCOCC1` [Compound 167, 1-(5-fluoro-1H-pyrrolo[2,3-b]pyridin-3-yl)-3-(5-methyl-6-morpholinopyridin-3-yl)urea], the pEC50 was less than 4.52.

These data come from patent US20230115274A1, “COMPOUNDS AND COMPOSITIONS FOR TREATING CONDITIONS ASSOCIATED WITH STING ACTIVITY” (IFM Due, Inc., priority 2019, published 2023).
